Assay: Antagonist activity at P2Y12 receptor in human blood platelets assessed as inhibition of ADP-induced platelet aggregation compound preincubated with blood for 5 mins prior to ADP addition by electrode aggregometry assay

Row | Structure (SMILES) | IC50 [µM]
1 | O=C(CCCCCCCC(=O)Nc1ccc2[nH]c3ccccc3c(=O)c2c1)Nc1ccc2[nH]c3ccccc3c(=O)c2c1 | 35
2 | CCOC(=O)c1cc(NC(=O)c2cc(NC(=O)c3cc(NC(=O)c4c(-c5ccccc5)noc4C)cn3C)cn2C)cn1C | 4.2
3 | O=C(CCC(=O)Nc1ccc2[nH]c3ccccc3c(=O)c2c1)Nc1ccc2[nH]c3ccccc3c(=O)c2c1 | 6.49
